Reference: patent US20020082263A1, “Heterocycle derivatives as PPAR-gamma agonists” (priority 2000, published 2002)

Experiments:
[1] = test system: db/db mice (C578BL/KsJ-db/db Jcl); test: Effect on serum glucose and serum insulin in db/db mice; type: in vivo, mouse; conditions: oral; for Serum Glucose (% reduction) / Serum Insulin (% reduction): blood 1.5 h after last dose vs pretreatment blood, mean ± SEM
Procedure: Compounds prepared in accordance with Examples 8 and 36 were evaluated for their effect on serum glucose and serum insulin in db/db mice (C578BL/KsJ-db/db Jcl). The compounds were dissolved in a vehicle consisting of 2% Tween80 in distilled water and administered orally. Dosage volume was 10 ml/kg body weight. All aspects of the work including experimentation and disposal of the animals was performed in general accordance with the International Guiding Principles for Biomedical Research Involving Animals (CIOMS Publication No. ISBN 92 90360194, 1985). Glucose-HA Assay kits (Wako, Japan) were used for determination of serum glucose and ELISA Mouse Insulin Assay kits (SPI bio, France) were utilized for determination of insulin. The positive control was troglitazone (Helios Pharmaceutical, Louisville, Ky.).
The animals were divided into twenty groups of four animals each. The animals weighed 52±5 gms at age 8-10 weeks. During the experiment the animals were provided free access to laboratory chow (Fwusow Industry Co., Taiwan) and water
Prior to any treatment a blood sample (pretreatment blood) was taken from each animal. Four groups of animals, the vehicle groups, received only doses of the vehicle. Each of the vehicle groups received of 100, 30, 10 or 1 ml/kg body weight of the vehicle orally. […] The compound of Example 8 was administered orally as a solution (10 ml/kg body weight in tween 80/water) to four groups of animals with each group receiving a different dose of the compound. The dosage rates were […] body weight with only one dosage rate administered to each group. […] The vehicle, positive control and test compound solutions were administered to the groups immediately, 24 hours and 48 hours after drawing the pretreatment blood. Blood was withdrawn (post treatment blood) 1.5 hours after administration of the last dose.
The serum glucose levels of the blood samples was determined enzymatically (Mutaratose-GOD) and the insulin levels by ELISA (mouse insulin assay kit). The mean ±SEM of each group was calculated and the percent inhibition of serum glucose and insulin was obtained by comparison between pretreatment blood and post treatment blood. The percentage of reduction of the serum glucose and insulin levels in the post treatment blood relative to the pretreatment blood was determined and the Unpaired students t test was applied for the comparison between the control and test solution groups and the vehicle group. A significant difference was considered at P<0.05.

PPAR-gamma = biological target: T1, PPAR-gamma (Homo sapiens, UniProt P37231); test: Reporter gene assay in transfected HepG2 cells: transcriptional activation of a PPRE via a PPAR-gamma mediated pathway; type: cell-based; conditions: transfected human hepatoma (HepG2) cells, 36-48 h exposure, reporter gene activity
T1 construct: host or cells: HepG2 (human hepatoma), transfected
T1 sequence (P37231 1-505): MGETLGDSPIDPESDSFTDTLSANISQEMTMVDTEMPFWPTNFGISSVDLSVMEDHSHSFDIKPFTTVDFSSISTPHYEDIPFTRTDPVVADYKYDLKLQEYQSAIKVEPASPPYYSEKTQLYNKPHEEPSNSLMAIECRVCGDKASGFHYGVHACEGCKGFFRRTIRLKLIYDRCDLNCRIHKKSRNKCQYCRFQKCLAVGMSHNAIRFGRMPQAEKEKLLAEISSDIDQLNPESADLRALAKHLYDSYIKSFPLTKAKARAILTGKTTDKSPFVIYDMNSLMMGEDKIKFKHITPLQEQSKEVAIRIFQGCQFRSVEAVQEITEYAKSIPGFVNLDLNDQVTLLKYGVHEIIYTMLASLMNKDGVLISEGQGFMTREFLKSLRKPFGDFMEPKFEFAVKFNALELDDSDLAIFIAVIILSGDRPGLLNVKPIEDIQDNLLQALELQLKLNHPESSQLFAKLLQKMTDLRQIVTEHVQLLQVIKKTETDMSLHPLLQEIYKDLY
Procedure: A reporter gene assay utilizing transfected human hepatoma (HepG2) cells is used to screen for compounds that transcriptionally activate a PPRE via a PPAR-gamma mediated pathway. Cells are exposed to experimental compounds dissolved in DMSO for 36-48 h prior to determination of reporter gene activity. 15dPGJ2 (2 μM) is used as positive control and vehicle (DMSO) is used as a negative control.

[2] = 100 mg/kg body weight, P<0.01, unpaired t test

With `COc1cc(CN2C[C@@H](CC(=O)NCC3CCCO3)N(C(=O)NC3CCCCC3)[C@@H](CC(C)C)C2=O)cc(OC)c1` (stereo partly drawn) [Example 8, N-Tetrahydrofurfuryl (R)-[1-cyclohexylcarbamoyl-4-(3,5-dimethoxybenzyl)-6-(S)-isobutyl-5-oxo-piperazin-2-yl]-acetamide] as the compound, how does the “Serum Glucose (% reduction)” value ([1]; 1 mg/kg at 0, 24 and 48 h) read?
Its value is 9 ± 8%.

What about the “Serum Insulin (% reduction)” value ([1]; 1 mg/kg at 0, 24 and 48 h) of the same compound?
Its value is 3 ± 7%.

What about the “Serum Glucose (% reduction)” value ([1]; 3 mg/kg at 0, 24 and 48 h) of the same compound?
The value was −1 ± 3%.

What about the “Serum Insulin (% reduction)” value ([1]; 3 mg/kg at 0, 24 and 48 h) of the same compound?
Its value is −7 ± 3%.

And the “Serum Glucose (% reduction)” value ([1]; 10 mg/kg at 0, 24 and 48 h)?
The value was 18 ± 6%.

And the “Serum Insulin (% reduction)” value ([1]; 10 mg/kg at 0, 24 and 48 h)?
The value was 1 ± 4%.

What about the “Serum Glucose (% reduction)” value ([1]; 30 mg/kg at 0, 24 and 48 h) of the same compound?
Its value is 14 ± 2%.

What about the “Serum Insulin (% reduction)” value ([1]; 30 mg/kg at 0, 24 and 48 h) of the same compound?
Its value is 5 ± 4%.

And the “Serum Glucose (% reduction)” value ([1]; 100 mg/kg at 0, 24 and 48 h)?
The value was 41 ± 6%.

What about the “Serum Insulin (% reduction)” value ([1]; 100 mg/kg at 0, 24 and 48 h) of the same compound?
The value was 6 ± 2.5%.

And the “reduction of serum glucose relative to the vehicle treated groups (in words)” value [1, 2]?
The value was “significant reduction”.

For `CNC(=O)CC1CN(Cc2cc(OC)cc(OC)c2)C(=O)[C@H](CC(C)C)N1C(=O)NC1CCCCC1` (stereo partly drawn) [Example 32, N-Methyl[1-cyclohexylcarbamoyl-4-(3,5-dimethoxybenzyl)-6-(S)-isobutyl-5-oxo-piperazin-2-yl]-acetamide], which EC50 (PPAR-gamma) is on record?
The EC50 was 620 nM.

Which EC50 (PPAR-gamma) does the source give for `CCCCNC(=O)CC1CN(Cc2cc(OC)cc(OC)c2)C(=O)[C@H](CC(C)C)N1C(=O)NC1CCCCC1` (stereo partly drawn) [Example 35, N-Butyl[1-cyclohexylcarbamoyl-4-(3 ,5-dimethoxybenzyl)-6-(S)-isobutyl-5-oxo-piperazin-2-yl]-acetamide] here?
The EC50 was 120 nM.

Which results are given for `CCCCNC(=O)C[C@@H]1CN(Cc2cc(OC)cc(OC)c2)C(=O)[C@H](CC(C)C)N1C(=O)NC1CCCCC1` [Example 36, N-Butyl (R)-[1-cyclohexylcarbamoyl-4-(3 5-dimethoxybenzyl)-6-(S)-isobutyl-5-oxo-piperazin-2-yl]-acetamide]?
Serum Glucose (% reduction) ([1]; 1 mg/kg at 0, 24 and 48 h): −1 ± 2%; Serum Insulin (% reduction) ([1]; 1 mg/kg at 0, 24 and 48 h): 8 ± 7%; Serum Glucose (% reduction) ([1]; 3 mg/kg at 0, 24 and 48 h): 0 ± 2%; Serum Insulin (% reduction) ([1]; 3 mg/kg at 0, 24 and 48 h): −9 ± 2%; Serum Glucose (% reduction) ([1]; 10 mg/kg at 0, 24 and 48 h): −4 ± 7%; Serum Insulin (% reduction) ([1]; 10 mg/kg at 0, 24 and 48 h): −9 ± 6%; Serum Glucose (% reduction) ([1]; 30 mg/kg at 0, 24 and 48 h): 37 ± 8%; Serum Insulin (% reduction) ([1]; 30 mg/kg at 0, 24 and 48 h): 1 ± 2%; reduction of serum glucose relative to the vehicle treated groups (in words) ([1]; 30 mg/kg body weight, P<0.05, unpaired t test): significant reduction; Serum Glucose (% reduction) ([1]; 100 mg/kg at 0, 24 and 48 h): 40 ± 7%; Serum Insulin (% reduction) ([1]; 100 mg/kg at 0, 24 and 48 h): 2 ± 4%; reduction of serum glucose relative to the vehicle treated groups (in words) [1, 2]: significant reduction

How did the EC50 (PPAR-gamma) turn out when `CCCC[C@H]1C(=O)N(Cc2cc(OC)cc(OC)c2)CC(CC(=O)NC)N1C(=O)NC1CCCCC1` (stereo partly drawn) [Example 41, N-Methyl[1-cyclohexylcarbamoyl-4-(3,5-dimethoxybenzyl)-6-(S)-butyl-5-oxo-piperazin-2-yl]-acetamide] was run?
The EC50 was 2350 nM.

How did the EC50 (PPAR-gamma) turn out when `CCNC(=O)CC1CN(Cc2cc(OC)cc(OC)c2)C(=O)[C@H](CC(C)C)N1C(=O)NC1CCCCC1` (stereo partly drawn) [Example 42, N-Ethyl[1-cyclohexylcarbamoyl-4-(3,5-dimethoxybenzyl)-6-(S)-isobutyl-5-oxo-piperazin-2-yl]-acetamide] was run?
The EC50 was 250 nM.

How did the EC50 (PPAR-gamma) turn out when `COc1cc(CN2CC(CC(=O)NCCO)N(C(=O)NC3CCCCC3)[C@@H](CC(C)C)C2=O)cc(OC)c1` (stereo partly drawn) [Example 43, N-(2-Hydroxyethyl)[1-cyclohexylcarbamoyl-4-(3,5-dimethoxybenzyl)-6-(S)-isobutyl-5-oxo-piperazin-2-yl]-acetamide] was run?
The EC50 was over 1000 nM.

For `Cc1c(C)c2c(c(C)c1O)CCC(C)(COc1ccc(CC3SC(=O)NC3=O)cc1)O2` (centres unmarked) [troglitazone, reference compound], which “Serum Glucose (% reduction)” value ([1]; 10 mg/kg at 0, 24 and 48 h) is on record?
Its value is 25±2%.
